We go through 18 compounds from US7022707B2, “Piperazine derivatives” (Hoffman-La Roche Inc., priority 2000, dated 2006).

Counter-ions that a name gives are not always drawn. Like-named read-outs stand apart in the source and are kept apart here.

One series concerns rats. The conditions noted are these: literature; cited from earlier work.
The test system of series [1] is human volunteers and obese subjects. The conditions noted are these: literature, cited from earlier work.
For series [2], the target named is T1, 5-HT2C receptor (Homo sapiens, UniProt P28335).
T1 sequence (P28335 33-458): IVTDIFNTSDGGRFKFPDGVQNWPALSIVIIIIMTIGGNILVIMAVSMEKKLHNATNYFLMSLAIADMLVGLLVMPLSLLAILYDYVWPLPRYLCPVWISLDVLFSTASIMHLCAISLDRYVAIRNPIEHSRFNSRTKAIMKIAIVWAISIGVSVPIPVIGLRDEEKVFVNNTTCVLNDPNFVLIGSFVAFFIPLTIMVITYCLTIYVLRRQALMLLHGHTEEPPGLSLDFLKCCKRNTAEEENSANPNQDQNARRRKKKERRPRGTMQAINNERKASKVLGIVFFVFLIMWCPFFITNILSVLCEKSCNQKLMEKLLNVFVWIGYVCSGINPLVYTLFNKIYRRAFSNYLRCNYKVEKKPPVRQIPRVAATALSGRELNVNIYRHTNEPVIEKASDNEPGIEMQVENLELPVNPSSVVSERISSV
The experiment in a line: Functional activity, FLIPR calcium assay, CHO cells expressing human 5-HT2C. It counts as cell-based. Set-up: expressed in transfected cells; host or cells: CHO cells. The note with it: for h5-HT2c Relative Efficacy: maximum fluorescent signal relative to 10 μM 5-HT (defined as 100%). As to the method:
(§1) The functional activity of compounds of formula (I) was assayed using a Fluorimetric Imaging Pate reader (FLIPR). CHO cells expressing the human 5-HT2C or human 5-HT2A receptors were counted and plated into standard 96 well microtitre plates on the day before testing to give a confluent monolayer. The cells were then dye loaded with the calcium sensitive dye, Fluo-3-AM. Unincorporated dye was removed using an automated cell washer to leave a total volume of 100 μL/well of assay buffer (Hanks balanced salt solution containing 20 mM Hepes and 2.5 mM probenecid). The drug (dissolved in 50 µL of the assay buffer) was added at a rate of 70 μL/sec to each well of the FLIPR 96 well plate during fluorescence measurements. The measurements were taken at 1 sec intervals and the maximum fluorescent signal was measured (approx 10–15 secs after drug addition) and compared with the response produced by 10 μM 5-HT (defined as 100%) to which it was expressed as a percentage response (relative efficacy). Dose response curves were constructed using Graphpad Prism (Graph Software Inc.).

The next series has as its target T2, human 5-HT2B receptors (Homo sapiens, UniProt P41595).
T2 construct: expressed in transfected cells; host or cells: CHO cell line
The experiment in a line: Binding to 5-HT2B receptor, [3H]-5-HT, Method (b). The protocol:
(§2) The binding of compounds of formula (I) to serotonin receptors was determined in vitro by standard methods. The preparations were investigated in accordance with the assays given below.
Method (b): For the binding to the 5-HT2B receptor, the 5-HT2B receptors were radiolabeled with [^3H]-5-HT. The affinity of the compounds for human 5-HT2B receptors in a CHO cell line was determined according to the procedure of K. Schmuck, C. Ullmer, P. Engels and H. Lubbert, FEBS Lett., 1994, 342, 85–90.
(§3) The Ki value is definied as an inhibition constance and is determined from the IC50 value as described in Cheng, Yung-Chi and Prusoff, W. H., Biochem. Pharmacol., 1973, 22(23), 3099–108.

Series [3] has as its target T1, 5-HT2C receptor. The experiment in a line: Binding to 5-HT2C receptor, [3H]-5-HT, Method (a). Set-up: expressed in transfected cells; host or cells: CHO cell line. As to the method:
as §2
Method (a): For the binding to the 5-HT2C receptor, the 5-HT2C receptors were radiolabeled with [^3H]-5-HT. The affinity of the compounds for 5-HT2C receptors in a CHO cell line was determined according to the procedure of D. Hoyer, G. Engel and H. O. Kalkman, European J. Pharmacol., 1985, 118, 13–23.
as §3

Series [4] deals with T3, 5-HT2A receptor (Homo sapiens, UniProt P28223). The experiment in a line: Binding to 5-HT2A receptor, [125I]-DOI, Method (c). Set-up: expressed in transfected cells; host or cells: CHO cell line. The protocol:
as §2
Method (c): For the binding to the 5-HT2A receptor, the 5-HT2A receptors were radiolabeled with [^125I]-DOI. The affinity of the compounds for 5-HT2A receptors in a CHO cell line was determined according to the procedure of D. J. McKenna and S. J. Peroutka, J. Neurosci., 1989, 9, 3482–90.
as §3

Series [5] addresses T3, 5-HT2A receptor. The experiment in a line: Functional activity, FLIPR calcium assay, CHO cells expressing human 5-HT2A. Format: cell-based. Set-up: expressed in transfected cells; host or cells: CHO cells. The note with it: for h5-HT2A Relative Efficacy: maximum fluorescent signal relative to 10 μM 5-HT (defined as 100%). The protocol:
as §1

Where [6] appears, read: FLIPR, CHO cells, Fluo-3-AM, read-out: h5-HT2c EC50.
The mark [7] stands for this setting: Method (b), [3H]-5-HT, human 5-HT2B in CHO cell line, Ki calculated from IC50, read-out: Ki (2B).
Where [8] appears, read: Method (a), [3H]-5-HT, CHO cell line, Ki calculated from IC50 (Cheng-Prusoff), read-out: Ki (2C).
Setting [9] is: Method (c), [125I]-DOI, CHO cell line, Ki calculated from IC50, read-out: Ki (2A).
Where [10] appears, read: FLIPR, CHO cells, Fluo-3-AM, read-out: h5-HT2A EC50.

T3 sequence (P28223 whole entry): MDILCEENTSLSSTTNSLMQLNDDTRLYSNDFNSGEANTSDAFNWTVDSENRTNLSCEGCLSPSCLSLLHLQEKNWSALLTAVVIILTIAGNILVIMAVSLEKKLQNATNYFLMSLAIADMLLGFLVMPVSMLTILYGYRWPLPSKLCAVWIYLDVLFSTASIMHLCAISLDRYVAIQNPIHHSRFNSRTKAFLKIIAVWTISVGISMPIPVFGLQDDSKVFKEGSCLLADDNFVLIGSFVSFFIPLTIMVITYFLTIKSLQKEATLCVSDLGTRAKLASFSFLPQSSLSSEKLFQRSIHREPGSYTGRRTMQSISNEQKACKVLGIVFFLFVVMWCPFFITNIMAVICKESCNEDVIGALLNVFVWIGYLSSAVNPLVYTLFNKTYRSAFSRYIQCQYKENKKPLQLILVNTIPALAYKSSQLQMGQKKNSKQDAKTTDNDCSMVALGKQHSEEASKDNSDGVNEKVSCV
T2 sequence (P41595 whole entry): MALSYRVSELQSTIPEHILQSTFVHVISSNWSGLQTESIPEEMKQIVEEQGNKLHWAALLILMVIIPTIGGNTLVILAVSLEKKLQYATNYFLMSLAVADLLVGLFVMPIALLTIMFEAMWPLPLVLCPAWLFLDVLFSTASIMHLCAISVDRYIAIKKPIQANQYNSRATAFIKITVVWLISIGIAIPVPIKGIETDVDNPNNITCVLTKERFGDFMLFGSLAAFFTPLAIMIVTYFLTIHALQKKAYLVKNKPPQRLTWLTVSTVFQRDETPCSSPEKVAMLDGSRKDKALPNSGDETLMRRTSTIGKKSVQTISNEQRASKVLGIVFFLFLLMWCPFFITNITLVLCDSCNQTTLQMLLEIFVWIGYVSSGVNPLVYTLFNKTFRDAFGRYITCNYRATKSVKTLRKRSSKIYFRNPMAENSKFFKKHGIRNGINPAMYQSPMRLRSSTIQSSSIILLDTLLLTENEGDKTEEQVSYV

`CCCCOc1ccc(F)c(COC(=O)N2CCNCC2)c1.O=C(O)/C=C/C(=O)O` gave a melting point of 142.4 to 143.5 °C.
Same read-out and setting: the value for `C[C@@H]1CNC[C@H](C)N1C(=O)OCc1c(F)ccc(Br)c1F.Cl` was 207 to 210 °C; that for `CC(C)COc1ccc(F)c(COC(=O)N2[C@H](C)CNC[C@@H]2C)c1.O=C(O)/C=C/C(=O)O` was 178.6 to 178.7 °C.
On the same count and under the same terms, the value for `CCCOc1cc(F)c(COC(=O)N2CCNC[C@H]2C)c(F)c1.O=C(O)/C=C/C(=O)O` was 193.9 to 194 °C.
Regarding `Clc1cccc(N2CCNCC2)c1` [mCPP, m-chlorophenylpiperazine], in the series on rats, the “food intake in rats” value was “reduce food intake”. Also, the “appetite and body weight” value in series [1] (obese male and female subjects, subchronic treatment for a 14 day period) is “decreased the appetite and body weight”. Further, the food intake result in series [1] (single dose, female volunteers) is “decreased food intake”.
Turning to `CCCOc1cc(F)c(COC(=O)N2CCNCC2CC)c(F)c1.O=C(O)/C=C/C(=O)O` (racemic), the melting point was 145 to 165 °C (dec.).
Consider `CC(C)NC(=O)Oc1ccc(CSC(=O)N2CCNCC2)cc1` [Example 63, S-4-[(2-Propylamino)carbonyl]oxybenzyl piperazine-1-thiocarboxylate hydrochloride], for which the values for the concentration for a half-maximal effect (EC50) at 5-HT2C receptor [2] and at 5-HT2A receptor [5] were 33 nM and 370 nM, respectively. The “h5-HT2c Relative Efficacy” value on 5-HT2C receptor [2] is given as 74%. Further, the results for the Ki at human 5-HT2B receptors, on 5-HT2C receptor [3] and on 5-HT2A receptor [4] were 8300 nM, 33 nM and 550 nM, respectively. In addition, the “h5-HT2A Relative Efficacy” value on 5-HT2A receptor [5] was 25%.
`Cc1noc(C)c1COc1cc(F)c(COC(=O)N2[C@H](C)CNC[C@@H]2C)c(F)c1` [Example 121, cis-2,6-Dimethyl-piperazine-1-carboxylic acid 4-(3,5-dimethyl-isoxazol-4-ylmethoxy)-2,6-difluoro-benzyl esterfumarate]: the values for the EC50 on 5-HT2C receptor [2] (setting [6]) and at 5-HT2A receptor [5] (setting [10]) were 22 nM and 550 nM, respectively. Also, at 5-HT2C receptor [2], the “h5-HT2c Relative Efficacy” value is on record as 91%. Moreover, the Ki was 8400 nM at human 5-HT2B receptors (setting [7]), 15 nM on 5-HT2C receptor [3] (setting [8]) and 200 nM at 5-HT2A receptor [4] (setting [9]). Besides, the “h5-HT2A Relative Efficacy” value at 5-HT2A receptor [5] is listed as 11%.
The compound `CCOc1ccc(F)c(COC(=O)N2[C@H](C)CNC[C@@H]2C)c1.O=C(O)/C=C/C(=O)O` yielded a melting point of 142.9 to 143.3 °C.
As for `Cl.O=C(OCc1ccc(Br)cc1F)N1CCNCC1`, the melting point lay in the range of 209.5 to 209.6 °C.
Same read-out and setting: the value for `CCCOc1ccc(F)c(COC(=O)N2CCNC[C@H]2C)c1.O=C(O)/C=C/C(=O)O` was 162.6 to 162.7 °C; that for `C[C@@H]1CNCCN1C(=O)OCc1ccc(OC(F)F)cc1.O=C(O)/C=C/C(=O)O` was 123.9 to 124.5 °C.
Still for that read-out and setting: the figure for `Cl.O=C(SCc1ccc(OCc2ccc(F)cc2)cc1)N1CCNCC1` is 169 to 169.5 °C; for `CCCOc1ccc(F)c(COC(=O)N2CCNCC2)c1.O=C(O)/C=C/C(=O)O` it is 155.9 to 156.1 °C; for `CCCCOc1ccc(F)c(COC(=O)N2CCNC[C@H]2C)c1.O=C(O)/C=C/C(=O)O` it is 171.6 to 171.7 °C.
Regarding `Cl.O=C(OCc1ccc(OC(F)F)cc1)N1CCNCC1` [Example 22, Piperazine-1-carboxylic acid 4-difluoromethoxy-benzyl ester hydrochloride], the EC50 on 5-HT2C receptor [2] (setting [6]) was 100 nM; at 5-HT2A receptor [5] (setting [10]) it was 220 nM. Further, the “h5-HT2c Relative Efficacy” value at 5-HT2C receptor [2] was 56%. Further, the results for the Ki on human 5-HT2B receptors (setting [7]), at 5-HT2C receptor [3] (setting [8]) and at 5-HT2A receptor [4] (setting [9]) were 4000 nM, 44 nM and 44 nM, respectively. Moreover, the “h5-HT2A Relative Efficacy” value at 5-HT2A receptor [5] amounted to 24%.
Compound `CCCCOc1ccc(F)c(COC(=O)N2[C@H](C)CNC[C@@H]2C)c1.O=C(O)/C=C/C(=O)O` had a melting point of 153.2 to 153.5 °C.
`Cl.O=C(SCc1ccc(OCc2ccccc2)cc1)N1CCNCC1` [Example 32, Piperazine-1-carbothioic acid S-(4-benzyloxy-benzyl) ester hydrochloride]: the concentration giving a half-maximal response (EC50) at 5-HT2C receptor [2] (setting [6]) stood at 38 nM; at 5-HT2A receptor [5] (setting [10]), 560 nM. In addition, the “h5-HT2c Relative Efficacy” value at 5-HT2C receptor [2] was found to be 65%. Further, the Ki on human 5-HT2B receptors (setting [7]) was 370 nM; on 5-HT2C receptor [3] (setting [8]), 15 nM; on 5-HT2A receptor [4] (setting [9]), 6 nM. The “h5-HT2A Relative Efficacy” value at 5-HT2A receptor [5] is listed as 22%.
